Measurements reported in patent US20080182895A1 (priority 2006, published 2008).
Like-named read-outs stand apart in the source and are kept apart here.

Tests used:
Type in all cases: cell-based, Hepatitis C virus
[1] = system: 1b, BB7-C316Y replicon; assay: Replicon variant 3-day assay; details: for Fold Resistance: C316Y replicon vs 1b, BB7 (WT); for EC50: read-out: EC50 (μM or pg/ml) ± SD
Procedure: (§1) pBB7-replicon variant DNAs were linearized with Sca I, and in vitro transcription was performed using Ambion's […]® T7 High Yield Transcription kit (Austin, Tex.). Purified RNA transcripts were electroporated into Huh-7 cells in quadruplicates using a Biorad GENE PULSER® Electroporation System (Setting: 270V, 950 μF) (Hercules, Calif.). Stably transfected replicon variant cell lines were initially selected with 0.25 mg/ml G418 and stepped up to 1 mg/ml before further testing. One cell plate was stained with Crystal Violet to visualize the number of colonies and determine the colony formation efficiency. Individual cell clones from each plate were pooled and expanded for drug susceptibility testing.
(§2) The contribution of individual amino acid changes on drug resistance was assessed in replicon variants containing single amino acid mutations in NS5B in the background of the genotype 1b, BB7 adaptive replicon (Blight et al. (2000) Science 290:1972-74).
(§3) Drug susceptibility of the replicon-containing cells to various compounds was evaluated as described previously (Howe et al. (2004) Antimicrobial Agents Chem. 48:4813-21). Briefly, cells were treated with increasing concentrations of compounds in medium containing 2% FCS and no G418 for three days at 37° C. and 5% CO2. After incubation, total RNA from the replicon-containing cells was isolated. The levels of HCV, glyceraldehyde 3-phosphate dehydrogenase (GAPDH) and ribosomal (rRNA) RNAs were quantified using TAQMAN® (PE Applied Biosystems, Foster City, Calif.) reverse transcriptase PCR reactions. The amounts of HCV, 18S ribosomal, and GAPDH RNAs in each sample were estimated by comparing the number of cycles during the exponential phase of the PCR amplification with those in the corresponding standard curves. HCV RNA standards used for the construction of the standard curve were prepared by extracting the total RNA from the Clone A cells. The RNA sample was sent to National Genetics Institute to quantify HCV RNA. Total RNA extracted from Clone A cells was quantified by O.D.260 measurement and used for construction of the standard curves of rRNA and GAPDH. The concentrations of the compounds that inhibit 50% of the HCV RNA level (EC50) were determined using the MDL® LIFE SCIENCE WORKBENCH® (LSW) Data Analysis software (MDL Information Systems, San Leandro, Calif.) in Microsoft EXCEL®. The amounts of HCV or GAPDH RNAs in the samples were expressed as HCV RNA (copies) or GAPDH (ng), respectively, per μg of total RNA using rRNA as a marker for total RNA measurement.

[2] = system: 1b, BB7 replicon (WT); assay: Replicon 3-day assay, wild type; details: read-out: EC50 (μM or pg/ml) ± SD
Procedure: as §1, §2, §3

[3] = system: 1b, BB7 replicon variants with single NS5B mutations; assay: Replicon variant assay, several variants taken together; details: replicon variants with HCV-796-associated mutations
Procedure: as §1, §2, §3

Row | Compound | Fold Resistance [1] [fold] | EC50 ([1]; C316Y replicon) [µM] | EC50 ([2]; 1b, BB7 (WT) replicon) [µM] | inhibition of the C316Y replicon compared with wild type (in words) ([1]; C316Y replicon variant vs wild type replicon) | EC50 ([1]; Hepatitis C virus) [µM] | susceptibility of HCV-796-resistant replicon variants to other antiviral agents (in words) ([3]; listed as Ribavirin) | susceptibility of HCV-796-resistant replicon variants to other antiviral agents (in words) ([3]; listed as ribavirin) | EC50 ([2]; Hepatitis C virus) [µM]
1 | CCC[C@]1(CC(=O)O)OCCc2c1[nH]c1c(C)ccc(C#N)c21 [HCV-371, [(1R)-5-cyano-8-methyl-1-propyl-1,3,4,9-tetrahydropyano[3,4-b]indol-1-yl]acetic acid] | 0.9 | 10.8 ± 0.8 | 12.2 ± 1.8 |  |  |  |  | 
2 | NC(=O)c1ncn([C@@H]2O[C@H](CO)[C@@H](O)[C@H]2O)n1 [RBV, 1-β-D-ribofuranosyl-1H-1,2,4-triazole-3-carboxamide, reference compound] | 1.8 |  |  | as efficiently as in the wild type replicon | 201 ± 36.7 | inhibits | remained susceptible | 133 ± 40.5
